In the METLIN SMRT retention time set (Domingo-Almenara et al. 2019):

Experiment: gradient 5% acetonitrile 3 min, to 50% in 2 min, to 85% in 15 min, held 3 min, 100 µL/min
Conditions: column: Zorbax Extend-C18 2.1 x 50 mm; eluents: water / acetonitrile, 0.1% formic acid
Method in brief: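 Retention times come from adduct peaks that were picked computationally and then checked by hand. The standards, pure and pooled in mixtures of ~100 molecules, were run on a Zorbax Extend-C18 column (2.1 × 50 mm, 1.8 μm) at 100 μL/min with water and acetonitrile, each with 0.1% formic acid. Detection was by quadrupole time-of-flight mass spectrometry in positive and negative ionization mode, with a dead volume of 40 μL and a dwell volume of 900 μL.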

RP-LC retention time	SMILES
901 s	Cc1cc(C)cc(-n2ccn(Cc3nc(-c4cccc(F)c4)no3)c(=O)c2=O)c1
680 s	CC(NC(=O)c1cc(-c2ccc(F)cc2)cn1C)c1cccnc1 (centres undefined)
868 s	COc1cc(-c2nc3ncccn3c2NC2CCC(C)CC2)ccc1OC(C)C (centres undefined)
704 s	Cc1ccc(F)cc1NS(=O)(=O)c1cc(-c2[nH]ncc2C(=O)N2CCOCC2)oc1C
638 s	O=C(Nc1ccccc1)N1CCC(CCOc2cccnc2)CC1
731 s	COc1ccc2nc(C(=O)N3CCN(c4ccc(F)cc4)CC3)cn2n1
859 s	N#Cc1cccc(NC(=O)Cn2cccc(-c3nc(-c4ccc(F)cc4)no3)c2=O)c1
755 s	CSc1ccc(CNC(=O)C2CCCN(c3cnc4nc(C)c(C)nc4c3)C2)cc1 (centres undefined)
767 s	O=C(Nc1nnc(C2CC(=O)N(c3ccccc3)C2)o1)c1cccc(Cl)c1 (centres undefined)
637 s	COc1ccc(NC(=O)Cc2csc(NC(=O)c3ccc(=O)[nH]c3)n2)cc1Cl
787 s	CCCONC(=O)Nc1ccccc1[N+](=O)[O-]
638 s	NC(=O)C1CCN(C(=O)CCn2ccn3nc(-c4ccccc4)cc3c2=O)CC1
648 s	COc1ccc(N2CCN(c3nc(C(=O)N4CCN(CC(C)C)CC4)cs3)CC2)cc1
564 s	O=C(NCCN1CCOCC1)c1nc(-c2ccnc(N3CCCCCC3)c2)no1
1150 s	CCn1ncc(NC(=O)COc2ccccc2C)c(N2CCCCC2)c1=O
762 s	COCCn1cc(CCNC(=O)Nc2cccc(Cl)c2)c2cccnc21
951 s	COc1cc(F)ccc1-c1ccnc2nc(CCc3ccccc3)nn12
905 s	COc1cc(F)ccc1-c1ccnc2nc(Cc3ccc(F)cc3)nn12
774 s	O=C(CSc1nnc2ccc(-c3cccc([N+](=O)[O-])c3)nn12)c1cccs1
1140 s	Cc1ccccc1-c1nc(C2CC(=O)N(c3ccc(F)c(Cl)c3)C2)no1 (centres undefined)
1150 s	CCn1cc2nc(SCc3cc(F)cc(F)c3)n(Cc3ccccc3F)c(=O)c2n1
890 s	Cc1nnc(-c2cn(CC(=O)Nc3ccc(Br)cc3F)c3ccccc23)o1

RP-LC retention time	SMILES
894 s	Cc1ccc(CNC(=O)C2(C)CCN(C(=O)c3ccccc3C(F)(F)F)CC2)cc1
631 s	O=C(Nc1nc(-c2ccccn2)cs1)c1ccc(N2CCOCC2)c([N+](=O)[O-])c1
920 s	c1cc2nnc(C3CCC3)n2nc1N1CCCC1
832 s	CC(=O)c1cccc(NC(=O)c2ccc(Cl)s2)c1
622 s	Cc1cc(Nc2nc(N[C@@H](C)c3ncc(F)cn3)ncc2Cl)n[nH]1
810 s	COc1ccc(-n2ccn3cc(-c4ccc(Cl)cc4)nc3c2=O)cc1OC
916 s	O=C(c1cn(Cc2ccccc2)cc2c(=O)n(-c3ccccc3)nc1-2)N1CCc2ccccc21
734 s	CCCC(O)c1nc2ccccc2n1CC(=O)N(c1ccccc1)C(C)C (centres undefined)
653 s	Cc1cnc(-c2ccccc2)n1C1CN(S(=O)(=O)c2cccs2)C1
1160 s	COc1ccccc1-c1nc(Cn2nnc(-c3nc(-c4ccc(F)cc4)no3)c2C)c(C)o1
947 s	Cc1ccc(NC(=O)N2CCCC(CCC(=O)NCCC3=CCCCC3)C2)cc1 (centres undefined)
736 s	Cc1ccc(CNC2=NCCNC23CCN(S(=O)(=O)c2ccc(C)cc2)CC3)cc1
715 s	Cc1cc(C(=O)N2CCC(c3nc4ccccc4s3)CC2)n(C)n1
819 s	Cc1noc(-c2cc(=O)n(CC(=O)NC3CCCCC3)c3ccccc23)n1
786 s	Cc1cc(C(=O)Nc2sc(C)c(C)c2C#N)on1
909 s	Cc1c(C(=O)NCC2CC2)cnn1-c1cc(-c2nc(C3CC3)no2)ccn1
642 s	O=C(c1nc(C2CC2)nc2c1OCCO2)N1CCCC1c1cccnc1 (centres undefined)
705 s	COC(=O)c1ccc(NC(=O)CSc2nnc(C)c3cnn(-c4ccccc4)c23)cc1
668 s	Cc1ccc(-c2ccnc3c(C(=O)NC(C)c4ccncc4)cnn23)cc1C (centres undefined)
1020 s	O=C(c1cccc(Br)c1)N1CCc2nc(-c3ccccc3)ncc2C1
974 s	CCOc1ccccc1NS(=O)(=O)c1c(C(=O)OC)sc2cccc(F)c12
595 s	CCOc1ccccc1CN1C[C@@H]2C(=O)N(C)C(=O)[C@@H]2C1

RP-LC retention time	SMILES
655 s	Fc1ccccc1-c1ccc(CNCc2ccccn2)o1
794 s	COc1cc(CNC(=O)CN2C(=O)C(C)(C)c3cc(C)ccc32)cc(OC)c1OC
728 s	CCCCNC(=O)Cn1nc2c(N3CCSCC3)nccn2c1=O
885 s	CCOC(=O)C1CCN(c2ncc(S(=O)(=O)c3ccccc3)c(N)n2)CC1
834 s	Fc1cccc(-c2nc3ncccn3c2NC2CCCCC2)c1
630 s	Cc1c(C(=O)N2CCN(C)CC2)cnn1-c1cc(-c2nc(C3CC3)no2)ccn1
1030 s	CCC1CCCCN1c1nc(-c2ccc([N+](=O)[O-])cc2)nc2ccccc12 (centres undefined)
676 s	CN(C)c1ccc(NC(=O)Cn2nc3c(Oc4ccccc4Cl)nccn3c2=O)cc1
1220 s	Cc1ccc(-c2nc(-c3ccc4c(c3)nc(C)c(=O)n4C)no2)c(C)c1
944 s	CCOC(=O)Cn1c(=O)c2c(nc3n2CCCCN3c2ccc(OCC)cc2)n(C)c1=O
843 s	CC(C)n1cnc(S(=O)(=O)N2CCC(C(=O)Nc3cccc(Br)c3)CC2)c1
739 s	CCCCCn1c(=O)c2ccccc2n(Cc2nc(-c3ccc(OC(F)(F)F)cc3)no2)c1=O
1200 s	O=C(NCCc1nc(-c2ccccc2)no1)c1sc2cccc(Cl)c2c1Cl
1190 s	Cc1ccc(-c2nnc(Cc3nc(-c4ccc(OC(C)C)cc4)no3)o2)cc1F
670 s	COC(=O)c1ccc2c(=O)n(-c3ccc(Cl)cc3)c(N3CCCN(C)CC3)nc2c1
936 s	CCNc1nn2ccccc2c1/C=C(/C#N)C(=O)OCC
742 s	O=C(NCc1cccs1)C1CCN(c2cnn(Cc3ccccc3)c(=O)c2)CC1
740 s	Cc1ccc(N2CCC(NC(=O)NC(C)C)C2=O)cc1C (centres undefined)
782 s	O=S(=O)(c1ccc(F)c(F)c1)N1CCCC(Cn2c(C3CC3)nc3cccnc32)C1 (centres undefined)
1190 s	Cc1cccc(NC(=O)Nc2nccn(-c3ccc(C(C)C)cc3)c2=O)c1
1320 s	CCOc1ccccc1NC(=O)c1c(O)c2cccnc2n(-c2cccc(F)c2)c1=O
953 s	CCCNC(=O)c1cc2c(-c3cccs3)nn(-c3ccccc3)c2n1C

RP-LC retention time	SMILES
968 s	Cn1cc2c3c(cccc31)CN(C(=O)c1ccccc1Br)CC2
662 s	CCOc1ccc(NC(=O)c2cnc(N3CCN(C4CCCCC4)CC3)nc2N)cc1
1120 s	O=C(NCc1ccc(Cl)cc1)C(=O)NCC1(c2cccs2)CCCC1
817 s	COc1cccc(-n2ccc(=O)c(-c3nc(-c4ccc(OC)c(OC)c4)no3)n2)c1
647 s	COCCN(Cc1ccc(F)cc1)Cc1cc(=O)n2cc(Cl)ccc2n1
670 s	CCc1cc(C(=O)NCCN2CCOCC2)nc2cc(-c3cccs3)nn12
641 s	OCCNCCN1CCN(CCCN2c3ccccc3Sc3ccc(C(F)(F)F)cc32)CC1
602 s	COCCNC(=O)C1CCCN(c2cnc3nc(C)c(C)nc3c2)C1 (centres undefined)
835 s	CCn1ccc2sc(C)c(C(=O)NCc3cc(F)ccc3F)c2c1=O
846 s	COc1ccc(C(=O)COC(=O)c2cccs2)cc1
899 s	CC(C)NC(=O)c1ccc(OCC2CCN(C(=O)c3cccc(Cl)c3)CC2)cc1
923 s	CCCn1cc(CCNS(=O)(=O)c2ccccc2CC)c2cccnc21
1170 s	CCN1C(=O)c2ccccc2Oc2ccc(C(=O)NCc3ccc4c(c3)OCO4)cc21
600 s	CCOC(=O)c1cc(S(=O)(=O)N2CCCC2C(=O)N2CCN(c3ccccn3)CC2)cn1C (centres undefined)
1250 s	COc1ccc(C2Cn3nnc(-c4nc(-c5cccc(Cl)c5)no4)c3CO2)cc1 (centres undefined)
781 s	CCCCOc1ccc(C(=O)Nc2ccc(-c3cn4ccc(C)nc4n3)cc2)cc1
1030 s	CCOc1ccccc1NC(=O)C1CCN(S(=O)(=O)c2c(C)nn(-c3ccccc3)c2C)CC1
707 s	Cc1ccc(NS(=O)(=O)c2cc(-c3[nH]ncc3C(=O)N(C)C)oc2C)c(Cl)c1
870 s	O=C(Nc1nnc(SCc2nnc(-c3ccccc3)o2)s1)c1ccc(Br)o1
606 s	CN(C)CCn1ccc2ccn(CC(=O)NCc3ccccc3)c(=O)c21
650 s	Cc1noc([C@@H]2CN(C(=O)CCc3nc4ccccc4s3)C[C@H]2C(N)=O)n1

SMILES	RP-LC retention time
O=C(Cc1ccc(F)cc1)N1CCN(CC(O)c2cccs2)CC1 (centres undefined)	569 s
COc1ccc2c(c1)C1(CCN(S(=O)(=O)c3ccccc3F)C1)C(=O)N2C (centres undefined)	901 s
